Results taken from BindingDB's records for doi:10.1016/j.bmcl.2013.09.026 (Friedrich-Alexander University, 2013).

Target: Alpha-1 adrenergic receptor (Sus scrofa)
Assay: Displacement of [3H]-prazosin from alpha1-adrenergic receptor in pig cerebral cortex

| SMILES | Ki [nM] |
| --- | --- |
| COc1ccccc1N1CCN(Cc2cn(CCCCCCF)nn2)CC1 | 110 |
| COc1ccccc1N1CCN(Cc2cn(CCOCCOCCF)nn2)CC1 | 490 |
